# Measurements: patent US8637526B2, “Pyrazolopyrimidine JAK inhibitor compounds and methods” (Genentech, Inc., priority 2008, dated 2014)
# Read-outs that look alike come from different tables or passages of the source.
# Experiments:
# human TYK2 kinase domain = human TYK2 kinase domain (Homo sapiens (Human), UniProt P29597); test: TYK2 Inhibition Assay Protocol (Caliper LabChip peptide phosphorylation); format: biochemical; conditions: enzymatic activity, 25 uM ATP; read-out: TYK2i Ki
# From the text: The catalytically active kinase domain of human JAK1, JAK2, JAK3 or TYK2 was purified from extracts of SF9 insect cells infected with a recombinant baculovirus expression vector encoding the human JAK1, JAK2, JAK3 or TYK2 kinase domains (JAK1 amino acid residues N852-D1154 according to the numbering of GenBank sequence accession number P23458, JAK2 amino acid residues D812-G1132 according to the numbering of GenBank sequence accession number NP_004963.1; JAK3 amino acid residues S783-S1124 according to the numbering of GenBank sequence accession number P52333, and TYK2 amino acid residues N873-C1187 according to the numbering of GenBank sequence accession number P29597). The activity of the JAK1, JAK2, JAK3 or TYK2 kinase domains can be measured by a number of direct and indirect methods, including quantification of phosphorylation of peptide substrates derived from the human JAK3 protein (Saltzman et al., Biochem. Biophys. Res. Commun. 246:627-633 (2004)). The activity of the JAK1, JAK2, JAK3 or TYK2 kinase domains was measured in vitro by monitoring phosphorylation of JAK3 derived peptides using the Caliper LabChip technology.
# (§1) The activity of the isolated JAK1 or TYK2 kinase domain was measured by monitoring phosphorylation of a peptide derived from JAK3 ([…] fluorescently labeled on the N-terminus with 5-carboxyfluorescein using the Caliper LabChip technology (Caliper Life Sciences, Hopkinton, Mass.). […] Reactions were incubated at 22° C. in 384-well polypropylene microtiter plates for 30 minutes and then stopped by addition of 25 uL of an EDTA containing solution (100 mM Hepes pH 7.2, 0.015% Brij-35, 150 mM EDTA), resulting in a final EDTA concentration of 50 mM. After termination of the kinase reaction, the proportion of phosphorylated product was determined as a fraction of total peptide substrate using the Caliper LabChip 3000 according to the manufacturer's specifications. Ki values were then determined using the Morrison tight binding model (Morrison, J. F., Biochim. Biophys. Acta. 185:269-296 (1969); William, J. W. and Morrison, J. F., Meth. Enzymol., 63:437-467 (1979)).
# TF-1 cells = test: IL-6-stimulated STAT3 phosphorylation in TF-1 cells (JAK1-dependent signaling, MSD); format: cell-based; conditions: Homo sapiens, read-out: IL6-pSTAT3 TF1 EC50
# Procedure: The activities of compounds were determined in cell-based assays that are designed to measure JAK1 or JAK2-dependent signaling. Compounds were serially diluted in DMSO and incubated with TF-1 cells (American Type Culture Collection (ATCC); Manassas, Va.) in 384-well microtiter plates in OptiMEM medium without phenol red, 1% Charcoal/Dextran stripped FBS, 0.1 mM NEAA, 1 mM sodium pyruvate (Invitrogen Corp.; Carlsbad, Calif.) at a final cell density of 100,000 cells per well and a final DMSO concentration of 0.2%. Human recombinant IL-6 (R&D systems; Minneapolis, Minn.) or EPO (Invitrogen Corp.; Carlsbad, Calif.) was then added at a final concentration of 30 ng/mL or 10 Units/mL, respectively, to the microtiter plates containing the TF-1 cells and compound and the plates were incubated for 30 min at 37° C. Compound-mediated effects on STAT3 or STATS phosphorylation were then measured in the lysates of cells incubated in the presence of IL-6 or EPO, respectively, using the Meso Scale Discovery (MSD) technology (Gaithersburg, Md.) according to the manufacturer's protocol and EC50 values were determined.
# human JAK3 kinase domain = human JAK3 kinase domain (Homo sapiens (Human), UniProt P52333); test: biochemical; format: biochemical
# Procedure: The activity of the JAK1, JAK2, JAK3 or TYK2 kinase domains was measured in vitro by monitoring phosphorylation of JAK3 derived peptides using the Caliper LabChip technology.
# as §1, with “JAK3” for “JAK1 or TYK2”, “specifications.” for “specifications. Ki values were then determined using the Morrison tight binding model (Morrison, J. F., Biochim. Biophys. Acta. 185:269-296 (1969); William, J. W. and Morrison, J. F., Meth. Enzymol., 63:437-467 (1979)).”
# [1] = enzymatic activity, 5 uM ATP, read-out: JAK3 Ki
# [2] = 0.5 h, TF-1 cells, IL-6 30 ng/mL, 30 min
# Sequence of human JAK3 kinase domain (P52333 783-1124): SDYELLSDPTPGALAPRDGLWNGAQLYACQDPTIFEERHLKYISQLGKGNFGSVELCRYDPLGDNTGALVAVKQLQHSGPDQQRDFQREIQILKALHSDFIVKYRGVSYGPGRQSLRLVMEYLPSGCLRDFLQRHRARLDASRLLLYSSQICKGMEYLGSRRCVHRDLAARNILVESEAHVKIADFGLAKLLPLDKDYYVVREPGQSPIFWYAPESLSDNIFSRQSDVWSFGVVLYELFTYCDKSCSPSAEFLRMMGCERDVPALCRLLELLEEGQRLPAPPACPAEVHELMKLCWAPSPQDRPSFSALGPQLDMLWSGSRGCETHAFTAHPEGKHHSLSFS
# Sequence of human TYK2 kinase domain (P29597 873-1187): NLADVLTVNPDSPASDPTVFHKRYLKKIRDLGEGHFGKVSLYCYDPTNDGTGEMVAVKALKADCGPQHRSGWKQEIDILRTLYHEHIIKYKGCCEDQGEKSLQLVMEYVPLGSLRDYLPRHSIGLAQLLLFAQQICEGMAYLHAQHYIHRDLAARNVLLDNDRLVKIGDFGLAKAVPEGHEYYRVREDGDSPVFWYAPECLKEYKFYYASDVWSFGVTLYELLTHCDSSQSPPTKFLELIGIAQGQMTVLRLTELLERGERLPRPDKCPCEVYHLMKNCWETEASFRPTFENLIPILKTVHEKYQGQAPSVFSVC
Structure (SMILES),Ki (human TYK2 kinase domain) [nM],Ki (human JAK3 kinase domain; [1]) [nM],EC50 (TF-1 cells; [2]) [nM],"EC50 (TF-1 cells; TF-1, 0.5 h) [nM]",Ki (human JAK3 kinase domain) [nM]
"Cc1nc(-c2ccccc2C)c(NC(=O)c2cnn3ccc(N)nc23)s1 [Example 231, 5-amino-pyrazolo[1,5-a]pyrimidine-3-carboxylic acid (2-methyl-4-o-tolyl-thiazol-5-yl)-amide]",43.8,12.4,,371,
"O=C(NC1CCOCC1)c1cnn2ccc(NC3Cc4ccccc4C3)nc12 [Example 297, 5-(Indan-2-ylamino)-pyrazolo[1,5-a]pyrimidine-3-carboxylic acid (tetrahydro-pyran-4-yl)-amide]",152,39.7,1400,,
"Nc1ccn2ncc(C(=O)Nc3ccnn3-c3cc(Cl)ccc3Cl)c2n1 [Example 277, 5-Amino-pyrazolo[1,5-a]-pyrimidine-3-carboxylic acid [2-(2,5-dichloro-phenyl)-2H-pyrazol-3-yl]-amide]",43.5,25.4,514,,
"O=C(N[C@H]1CC[C@H](O)CC1)c1cnn2ccc(NC3CCc4ccccc43)nc12 (stereo partly drawn) [Example 299, 5-(Indan-1-ylamino)-pyrazolo[1,5-a]pyrimidine-3-carboxylic acid (4-hydroxy-cyclohexyl)-amide]",50.9,,1880,,14.5
"Cc1cc(NC(=O)c2cnn3ccc(N)nc23)n(-c2ccccc2C)n1 [Example 343, 5-Amino-pyrazolo[1,5-a]-pyrimidine-3-carboxylic acid (5-methyl-2-o-tolyl-2H-pyrazol-3-yl)-amide]",97.6,28.6,380,,
"Cc1cc(NC(=O)c2cnn3ccc(Nc4cccc(C(F)(F)F)c4)nc23)on1 [Example 240, 5-(3-Trifluoromethyl-phenylamino)-pyrazolo-[1,5-a]pyrimidine-3-carboxylic acid (3-methyl-isoxazol-5-yl)-amide]",62.4,95.1,1600,,

# The next molecules have a lower Ki (human TYK2 kinase domain) than those just listed; values first:
Ki (human TYK2 kinase domain) [nM],Ki (human JAK3 kinase domain; [1]) [nM],EC50 (TF-1 cells; [2]) [nM],Structure (SMILES),"EC50 (TF-1 cells; TF-1, 0.5 h) [nM]",Ki (human JAK3 kinase domain) [nM]
32.8,15.7,170,Cc1cc(NC(=O)c2cnn3ccc(N)nc23)n(-c2cc(Cl)ccc2C)n1 [Example 226],,
4.1,1.7,165,"Nc1ccn2ncc(C(=O)Nc3c[nH]nc3-c3cc(Cl)ccc3Cl)c2n1 [Example 248, 5-Amino-pyrazolo[1,5-a]-pyrimidine-3-carboxylic acid [3-(2,5-dichloro-phenyl)-1H-pyrazol-4-yl]-amide]",,
